Assays:
[1] = biological target: T1, androgen receptor preparations of sebaceous glands (Mesocricetus auratus, UniProt A0A1U7QL32); assay: Competitive binding analysis (displacement of tritium-marked R 1881); design: species or system Syrian hamster; conditions: for in vitro affinity at 50% blocking (rank order): displacement of 8 nM tritium-marked R 1881, FIG. 1; for affinity (RBA) for the androgen receptors, in words: displacement of tritium-marked R 1881
T1 construct: [3H]R1881 displacement with excess triamcinolone acetate
T1 sequence (A0A1U7QL32 1-900): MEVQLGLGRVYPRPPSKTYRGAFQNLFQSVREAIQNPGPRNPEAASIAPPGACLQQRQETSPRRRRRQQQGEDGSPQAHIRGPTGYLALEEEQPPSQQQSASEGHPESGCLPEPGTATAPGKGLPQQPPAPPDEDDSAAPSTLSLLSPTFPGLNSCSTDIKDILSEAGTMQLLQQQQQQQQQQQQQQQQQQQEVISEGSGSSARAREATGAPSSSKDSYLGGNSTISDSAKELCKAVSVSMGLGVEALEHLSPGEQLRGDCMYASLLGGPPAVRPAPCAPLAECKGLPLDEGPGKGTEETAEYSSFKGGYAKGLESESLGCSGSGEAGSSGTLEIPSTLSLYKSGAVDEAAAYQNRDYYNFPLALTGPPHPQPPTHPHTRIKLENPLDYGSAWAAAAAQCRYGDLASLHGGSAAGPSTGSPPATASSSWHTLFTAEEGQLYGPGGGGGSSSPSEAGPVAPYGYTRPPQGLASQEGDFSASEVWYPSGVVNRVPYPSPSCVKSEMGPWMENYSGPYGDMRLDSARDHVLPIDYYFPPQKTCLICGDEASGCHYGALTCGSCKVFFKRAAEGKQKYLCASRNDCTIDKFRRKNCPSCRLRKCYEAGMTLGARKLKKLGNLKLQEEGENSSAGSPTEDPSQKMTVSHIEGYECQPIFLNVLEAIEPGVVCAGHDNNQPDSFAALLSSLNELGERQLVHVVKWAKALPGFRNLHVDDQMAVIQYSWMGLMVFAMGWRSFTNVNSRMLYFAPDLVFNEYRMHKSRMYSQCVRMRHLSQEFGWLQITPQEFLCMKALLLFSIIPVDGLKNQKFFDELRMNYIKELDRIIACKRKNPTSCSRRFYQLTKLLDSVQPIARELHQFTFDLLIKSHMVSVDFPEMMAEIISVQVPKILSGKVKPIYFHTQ
Description: The standardisation basis in competitive binding analysis is the concentration of the competitor which, can displace 50% of a radioactively labeled reference substance from the receptor. This is conditioned upon the assumption that a relative binding efficiency (RPA) is proof of a high […] in the test material.
The comparison of the in vivo sebum suppression with RBA to the androgen receptor in vitro, should give the key to the answer of whether the substance itself or metabolites thereof, are responsible for the activity.
For the competitive study the web material of five ear shells was gathered. After homogenization in buffer A (10 mM-Tris-HCl-pH 7.4; 1.5 mM EDTA; 5 mM monothiogylcerine) cytosol was obtained as a supernate after ultracentrification at 120×10^3 g for thirty minutes at 4° C. The protein content was adjusted to between 1 to 5 mg/ml with a buffer A.
After a reaction time of 12 hours at 4° C. to achieve equilibrium, the unbound steroid hormones were removed from the reaction mixture by means of dextrancoated activated charcoal suspension (0.5% activated charcoal and 0.05% detran in […] Tris-HCl-buffer; pH 7.4). An aliquot of the supernate after centrifugation was measured in a fluid scintillation counter.

gestogen receptors = biological target: T2, gestogen receptors (Ovis aries, UniProt A0ACI6RU96); assay: Binding to gestogen receptors in a sheep uterus (FIG. 2)
T2 sequence (A0ACI6RU96 1-911): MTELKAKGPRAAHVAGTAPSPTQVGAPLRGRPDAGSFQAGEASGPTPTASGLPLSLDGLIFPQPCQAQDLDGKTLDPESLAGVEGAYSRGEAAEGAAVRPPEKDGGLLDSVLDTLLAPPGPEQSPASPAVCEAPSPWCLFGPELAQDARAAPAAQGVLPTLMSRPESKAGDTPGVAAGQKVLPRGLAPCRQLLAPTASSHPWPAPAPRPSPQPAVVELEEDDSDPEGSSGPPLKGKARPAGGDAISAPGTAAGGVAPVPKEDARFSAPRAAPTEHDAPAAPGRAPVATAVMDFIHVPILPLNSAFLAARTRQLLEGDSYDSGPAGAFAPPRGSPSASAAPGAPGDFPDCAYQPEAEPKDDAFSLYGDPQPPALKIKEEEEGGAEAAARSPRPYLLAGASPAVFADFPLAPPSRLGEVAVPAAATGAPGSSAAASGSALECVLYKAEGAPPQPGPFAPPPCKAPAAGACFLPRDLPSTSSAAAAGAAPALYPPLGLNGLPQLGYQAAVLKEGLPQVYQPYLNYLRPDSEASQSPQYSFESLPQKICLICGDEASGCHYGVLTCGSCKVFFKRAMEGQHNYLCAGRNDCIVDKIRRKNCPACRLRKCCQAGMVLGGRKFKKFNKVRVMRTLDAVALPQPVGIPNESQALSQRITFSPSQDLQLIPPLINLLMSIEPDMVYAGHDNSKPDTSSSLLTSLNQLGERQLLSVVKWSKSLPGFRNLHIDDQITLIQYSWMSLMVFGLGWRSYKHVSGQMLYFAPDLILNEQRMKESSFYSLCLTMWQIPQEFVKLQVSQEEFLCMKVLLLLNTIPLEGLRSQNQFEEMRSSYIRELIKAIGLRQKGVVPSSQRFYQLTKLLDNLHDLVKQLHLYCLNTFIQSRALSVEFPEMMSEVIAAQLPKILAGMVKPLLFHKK
Description: These experiments relating to the competitive binding of different hormanal substances can only describe certain aspects of the binding kinetics, but not all aspects of the pharmacokinetics. It is thus necessary to test the biological effects of steroid hormones by in vivo methods.

androgenetic alopezia = assay: Hair growth material on bald spots in androgenetic alopezia (Example VI); format: in vivo; conditions: for hair growth on previously bald spot: 2% solution in 50% ethanol and 50% Tween 20, rubbed twice daily, 1 mg per cm^2, four weeks; for undesirable side effects: topical, twice daily, 2% solution
Method: A 2% solution of nor-ethisterone in 50% ethanol and 50% Tween 20, was utilized for the assistance in hair growth by androgenetic alopezia. The bald spots were rubbed twice daily with a sufficient amount of hair growth material to provide a concentration of 1 mg per cm^2 nor-ethisterone through the skin barrier to the receptor site.

[2] = system: skin upper surface lipids; assay: Human studies: skin surface lipid content after topical ethisterone lotion; format: in vivo
Method: A 2% ethisterone formulation was prepared in accordance with Example I. Five male and five female human test subjects took part in the experiment who were treated on their left foreheads with the ethisterone lotion. The subjects applied the lotion twice a day at a concentration of approximately 0.1 mg per cm^2 of ethisterone applied to the receptors.
The lipid content of the upper skin surface of both left and right forehead portions were measured prior to the onset of therepy (0 control), in the second and the fourth weeks of therapy.
Initially the replacement sum was determined. The skin was first cleaned with cigarette paper dipped in acetone and stroked six to eight times over the test area. After sixty minutes the skin lipids were removed from the skin portion of the following manner. Cigarette paper was placed by means of tweezers on the segment to be measured and on the cigarette paper was placed a mass of 280 grams having a surface area of 5 cm^2. Thereafter, the paper was eluted with a mixture comprising 70 parts of acetone and 30 parts of methanol. The thus produced eluate was evaporated to dryness and treated with phosphovanillic acid, thereafter the eluate was evaluated by gas chromatography. Previously, the gas chromatograph had been calibrated with 25 standard skin lipids (mono-di-, triglyceride, cholesterol as well as cholesterol esters, oleic acid esters, having 10 to 18 carbon atoms as well as waxes having up to 28 carbon atoms).
The eluate was also subjected, to thin layer chromomatography. It is noted that generally, speaking the standard substances may be regarded as representative of skin upper surface lipids.

[3] = ethisterone in oil-in-water emulsion applied to the skin (summary statement)

| Structure (SMILES) | in vitro affinity at 50% blocking (rank order) [1] | affinity (RBA) for the androgen receptors, in words [1] | binding affinity to gestogen receptors (comparison) (gestogen receptors) | hair growth on previously bald spot (androgenetic alopezia) | undesirable side effects (androgenetic alopezia) | lipid content on treated skin upper surface area less than untreated area ([2]; 2% ethisterone lotion twice a day on left forehead, approx. 0.1 mg per cm^2, four week treatment) | wax content reduced ([2]; 2% ethisterone lotion twice a day on left forehead, four week treatment) | reduction of lipids which comprise waxy substances (C20 to C28) [2, 3] | reduction of total lipid content of the skin from the initial value [2, 3] |
| --- | --- | --- | --- | --- | --- | --- | --- | --- | --- |
| C[C@@H]1C[C@H]2[C@@H]3CCC4=CC(=O)C=C[C@]4(C)[C@@]3(F)[C@@H](O)C[C@]2(C)[C@@]1(O)C(=O)CO [dexamethasone] | R 1881, 17-alpha-PM, ethisterone, CPA, SL and dexamethasone | may be disregarded | – | – | – | – | – | – | – |
| C#C[C@]1(O)CC[C@H]2[C@@H]3CCC4=CC(=O)CC[C@@H]4[C@H]3CC[C@@]21C [nor-ethisterone, 17-hyroxy-19-norpregn-4-en-20-yn-3-one] | – | – | higher binding affinity than progesterone and ethisterone | a hair fuzz is noted on the previously bald spot | no undesirable side effects were noted | – | – | – | – |
| C#C[C@]1(O)CC[C@H]2[C@@H]3CCC4=CC(=O)CC[C@]4(C)[C@H]3CC[C@@]21C [ethisterone, 17-alpha-hydroxypregen-4-en-20-yn-3-one] | R 1881, 17-alpha-PM, ethisterone, CPA, SL and dexamethasone | satisfactory middle place between 17-alpha-PM and synthetic R 1881 | nor-ethisterone has a higher binding affinity than progesterone and ethisterone | – | – | 25% | 75% | 75 % by weight | about 25% |
| CC(=O)[C@H]1CC[C@H]2[C@@H]3CCC4=CC(=O)CC[C@]4(C)[C@H]3CC[C@]12C [progesterone] | – | – | nor-ethisterone has a higher binding affinity than progesterone and ethisterone | – | – | – | – | – | – |
| CCCC1(O)CCC2C3CCC4CC(=O)CC(C)C4(C)C3CCC21C (stereo not drawn) [17-alpha-PM, 17-alpha-propyl-mesterolone] | R 1881, 17-alpha-PM, ethisterone, CPA, SL and dexamethasone | substantially higher affinity | – | practically the same result is obtained | no undesirable side effects were noted | – | – | – | – |

— patent US5094857A, “Treatment of acne or androgenetic alopecia by topical administration of ethisterone” (priority 1987, dated 1992)
